Experiment [1] can be described thus: Mycobacterium tuberculosis H37Rv growth inhibition, no glycerol, confirmatory dose response (AID 504901). The following applies: Mycobacterium tuberculosis H37Rv growth inhibition, no glycerol; at 50 µM (top of the series).
The test system of experiment [2] is Mycobacterium tuberculosis H37Rv growth inhibition, no glycerol. The description is as above. The conditions noted are these: for IC50: measured here: IC50 of growth inhibition.

Several values for one entry are separate records, joined by “and”; a condition that tells them apart may be missing. Identical values can stand only once. Activity calls are given as the source filed them. How the calls were made is not given here.

The inhibition is the relative decrease from the control value, in per cent. As for `O=C(CSc1nccc(=O)[nH]1)NC1CCCCC1`, the inhibition in experiment [1] is -0.32% (inactive).

Turning to `CCC(Sc1nc2c(c(=O)[nH]1)CCC2)C(=O)Nc1cccc(OC)c1` (stereo not given), the inhibition in experiment [1] is 3.19% (inactive).

With `Cc1cc(=O)[nH]c(SCC(=O)NC2CCCCC2)n1`, the inhibition in experiment [1] is -0.58% (inactive).

On to `Cc1cnc(SCC(=O)NC2CCCCC2)[nH]c1=O`, for which the inhibition in experiment [1] was -9.54% (inactive).

The IC90 is the point of the concentration-response curve where the effect stands at 90%. Usually IC50 stands for the midpoint of a concentration-inhibition curve. Take `O=C(CSc1nc2c(c(=O)[nH]1)CCCC2)NC1CCCCC1`: in experiment [2], the IC90 was 160 nM and the IC50 turned out to be 90 nM.

Turning to `Cc1[nH]c(=S)[nH]c(=O)c1C`, the inhibition in experiment [1] is 3.12% (inactive).

Consider `NC[C@H]1O[C@H](O[C@H]2[C@H](O)[C@@H](O[C@H]3O[C@H](CO)[C@@H](O)[C@H](N)[C@H]3O)[C@H](N)C[C@@H]2N)[C@H](O)[C@@H](O)[C@@H]1O`, for which, in experiment [2], the 90% effect concentration (IC90) was 2470 nM and the IC50 was 2010 nM.

As for `CC1CCN(C(=O)CSc2nc3ccccc3c(=O)[nH]2)CC1`, in experiment [1], the inhibition was -4.55% (inactive).

For the molecule `Nc1c(C(=O)NC2CCCCC2)nsc1C(=O)OCC(=O)NC1CCCCC1`, in experiment [2], the 90% effect concentration (IC90) is 6830 nM and the IC50 was determined as 4100 nM.

As to `Cc1nc(SCC(N)=O)[nH]c(=O)c1C`, the inhibition in experiment [1] is -0.93% (inactive).

In the case of `CNC(=O)CSc1nc2ccccc2c(=O)[nH]1`, in experiment [1], the inhibition was 11.7% (inactive).

On to `CC[N+](C)(CC)CCCCOc1ccc2c(c1)C(=O)c1cc(OCCCC[N+](C)(CC)CC)ccc1-2`, for which the IC50 in experiment [2] was 1900 nM.

Consider `CN(C(=O)CSc1nc2ccccc2c(=O)[nH]1)C1CCCCC1`, for which the inhibition in experiment [1] is -7.16% (inactive).

As for `CCOC1OC(=O)C(Cl)=C1Nc1ccccc1C` (stereo not given), in experiment [2], the IC90 is 5870 nM and the 50% inhibitory concentration (IC50) came out at 3110 nM.

Regarding `CC(C)NC(=O)CSc1nc2ccccc2c(=O)[nH]1`, in experiment [2], the IC90 was 14600 nM and the IC50 was 9570 nM.

`CCCCNC(=O)CSc1nc2ccccc2c(=O)[nH]1`: in experiment [2], the IC90 was 1060 nM and the 50% inhibitory concentration (IC50) was found to be 320 nM.

Turning to `O=C(CSc1ccccn1)NC1CCCCC1`, the inhibition in experiment [1] was 3.21% (inactive).

Consider `COc1c(N2CCNC(C)C2)c(F)cc2c(=O)c(C(=O)O)cn(C3CC3)c12` (stereo not given), for which the IC50 in experiment [2] was 140 nM.

With `CN[C@@H]1[C@H](O[C@H]2[C@H](O[C@H]3[C@H](O)[C@@H](O)[C@H](N=C(N)N)[C@@H](O)[C@@H]3N=C(N)N)O[C@@H](C)[C@]2(O)C=O)O[C@@H](CO)[C@H](O)[C@H]1O`, in experiment [2], the IC90 is 220 nM and the IC50 came to 150 nM.

Take `CCC(Sc1nc2ccccc2c(=O)[nH]1)C(=O)NC1CCCCC1` (stereo not given): the inhibition in experiment [1] is -7.27% (inactive).

In the case of `CCSc1nc2ccccc2c(=O)[nH]1`, in experiment [1], the inhibition was 1.1% (inactive).

For `Cc1cccc(-c2oc3ccc(-c4ccc5c(c4)OCO5)cc3c2C#Cc2cncn2C)c1`, in experiment [2], the IC90 is 2960 nM and the IC50 was 2360 nM.

`COc1cccc(NC(=O)CSc2nc3c(c(=O)[nH]2)CCC3)c1`: the inhibition in experiment [1] was 4.58% (inactive).

As for `O=C(CSc1ncccn1)NC1CCCCC1`, the inhibition in experiment [1] was -1.46% (inactive).

Regarding `CC(Sc1nc2ccccc2c(=O)[nH]1)C(=O)NC1CCCCC1` (stereo not given), the inhibition in experiment [1] was -6.09% (inactive).

`O=c1[nH]c(SCc2ccccc2Cl)nc2c1CCCC2`: in experiment [1], the inhibition was -5.59% (inactive).

In the case of `Cc1cccc(/C=C/C(=O)c2ccc([N+](=O)[O-])o2)c1`, in experiment [2], the IC90 was 2060 nM and the IC50 turned out to be 1360 nM.

As to `CCOc1ccc(-c2cc(C)[n+](CCc3ccc(OC)c(OC)c3)c(-c3ccc(OCC)cc3)c2)cc1`, in experiment [2], the IC90 was 1120 nM and the IC50 was determined as 710 nM.

Regarding `Cc1[nH]c2ccccc2c1C(=O)COC(=O)c1ccc([N+](=O)[O-])s1`, in experiment [2], the IC90 is 27600 nM and the IC50 was found to be 26400 nM.

Take `CN(C)C(=O)CSc1nc2ccccc2c(=O)[nH]1`: the inhibition in experiment [1] was -6.71% (inactive).

`CO[C@H]1/C=C/O[C@@]2(C)Oc3c(C)c(O)c4c(O)c(c(C=NN5CCN(C)CC5)c(O)c4c3C2=O)NC(=O)/C(C)=C\C=C\[C@H](C)[C@H](O)[C@@H](C)[C@@H](O)[C@@H](C)[C@H](OC(C)=O)[C@@H]1C` showed an IC50 in experiment [2] of 10 nM.

For `CN1CCC(NC(=O)CSc2nc3ccccc3c(=O)[nH]2)CC1`, in experiment [1], the inhibition is -11.8% (inactive).

Regarding `CC(C)CCNC(=O)CSc1nc2ccccc2c(=O)[nH]1`, in experiment [2], the IC90 is 500 nM and the IC50 is below 140 nM.

On to `O=C(CSc1nc2c(c(=O)[nH]1)CCC2)NC1CCCCC1`, for which, in experiment [2], the IC90 is below 110 nM and the IC50 was below 70 nM.

As for `O=C(CSc1nc2ccccc2c(=O)[nH]1)NC1CCCCC1`, the IC90 in experiment [2] was 510 nM and 80 nM.

As for `Cc1nc(SCC(=O)NC2CCCCC2)[nH]c(=O)c1C`, in experiment [2], the IC90 was 3780 nM and the 50% inhibitory concentration (IC50) amounted to 650 nM.

Turning to `NC(=O)CSc1nc2ccccc2c(=O)[nH]1`, the inhibition in experiment [1] is -10.9% (inactive).

`Cc1ccc(NC(=O)COC(=O)CCc2c[nH]c3ccccc23)cc1[N+](=O)[O-]`: in experiment [2], the IC90 is 7750 nM and the IC50 was 2730 nM.

For the molecule `NC(=O)c1cnccn1`, the inhibition in experiment [1] is 1.71% (inactive).

As for `O=C(CSc1nc2ccccc2c(=O)[nH]1)NCc1ccc(Cl)cc1`, in experiment [2], the IC90 was 1470 nM and the IC50 came to 1030 nM.

As for `COC(=O)C(Nc1nc(SCC(=O)NC2CCCCC2)nc2ccccc12)c1ccccc1` (stereo not given), in experiment [1], the inhibition is -3.62% (inactive).

Turning to `Cc1cc(=O)[nH]c(=S)[nH]1`, the inhibition in experiment [1] is -7.95% (inactive).

For `CCC(Sc1nc2ccccc2c(=O)[nH]1)C(=O)Nc1cccc(OC)c1` (stereo not given), the inhibition in experiment [1] is -3.07% (inactive).

As to `Nc1cc(=O)[nH]c(SCC(=O)NC2CCCCC2)n1`, the inhibition in experiment [1] is -6.39% (inactive).

As to `Cc1nc(SCC(=O)N(C)c2ccccc2)[nH]c(=O)c1C`, the inhibition in experiment [1] is -3.18% (inactive).

With `Cc1ccc(C(=O)N/N=C(/CC(=O)c2cccs2)C(F)(F)F)cc1`, in experiment [2], the IC90 is 3580 nM and the IC50 stood at 2560 nM.

`O=C(CSc1nc2ccccc2c(=O)[nH]1)NC1CCCC1`: in experiment [2], the IC90 is 500 nM and the IC50 was found to be 330 nM.

In the case of `Cc1ccc(NC(=O)CSc2nc3ccccc3c(=O)[nH]2)cc1Cl`, the inhibition in experiment [1] is -3.41% (inactive).

Turning to `Cc1nc(SCC(=O)NC2CCCC2)[nH]c(=O)c1C`, in experiment [2], the IC90 is 13800 nM and the IC50 is 9690 nM.

`Cc1cc(C)n2nc(N)c(N=Nc3ccccc3)c2n1`: in experiment [2], the IC90 was 5960 nM and the half-inhibitory concentration (IC50) stood at 4550 nM.

In the case of `CCSc1nc(C)c(C)c(=O)[nH]1`, the inhibition in experiment [1] was -2.72% (inactive).

On to `COc1cccc(NC(=O)CSc2nc3ccccc3c(=O)[nH]2)c1`, for which, in experiment [1], the inhibition is -14.5% (inactive).

For `Cc1nc(SCC(=O)NCCC(C)C)[nH]c(=O)c1C`, in experiment [2], the IC90 was 12800 nM and the IC50 was determined as 8990 nM.

With `CC(C)CNC(=O)CSc1nc2ccccc2c(=O)[nH]1`, in experiment [2], the IC90 is 790 nM and the IC50 was 410 nM.

`Cc1c[nH]c(=S)[nH]c1=O`: the inhibition in experiment [1] is -2.94% (inactive).

Regarding `CC(C)CCNC(=O)CSc1nc2c(c(=O)[nH]1)CCC2`, in experiment [2], the IC90 is 1720 nM and the IC50 came to 1400 nM.

On to `Cn1c(SCC(=O)NC2CCCCC2)nc2ccccc2c1=O`, for which the inhibition in experiment [1] was -9.98% (inactive).

Take `Cc1nc(SCc2ccccc2Cl)[nH]c(=O)c1C`: the inhibition in experiment [1] is -13.7% (inactive).

With `O=C(CSc1nc2ccccc2c(=O)[nH]1)N1CCOCC1`, the inhibition in experiment [1] is 0.57% (inactive).

With `Cc1cc(Br)ccc1NC(=O)c1cnc(N2CCN(c3ccccn3)CC2)c2ccccc12`, in experiment [2], the IC90 was 50000 nM and the IC50 came to 3420 nM.

`CCOC(=O)CSc1nc(C)c(C)c(=O)[nH]1`: in experiment [1], the inhibition was -7.41% (inactive).

Take `CC1CCN(C(=O)C2CCN(c3nnc(-n4cccc4)s3)CC2)CC1`: in experiment [2], the IC90 was 6400 nM and the IC50 worked out at 3290 nM.

Turning to `COC(=O)c1ccc(CNc2c(N3CCCC3)c(=O)c2=O)cc1`, the inhibition in experiment [1] was -8.74% (inactive).

In the case of `CC(C)N=c1cc2n(-c3ccc(Cl)cc3)c3ccccc3nc-2cc1Nc1ccc(Cl)cc1`, the half-maximal inhibitory concentration (IC50) in experiment [2] is above 140 nM.

On to `O=c1[nH]c(=S)[nH]c2ccccc12`, for which the inhibition in experiment [1] was -9.52% (inactive).

As to `COC(=O)C(C)Oc1ccc(Cc2ncc(C(F)(F)F)cc2Cl)cc1` (stereo not given), in experiment [2], the 90% effect concentration (IC90) is 5610 nM and the IC50 worked out at 3950 nM.

For `COc1ccc(NC(=O)CSc2nc3ccccc3c(=O)[nH]2)cc1`, the inhibition in experiment [1] was -9.6% (inactive).

Regarding `CCCc1cc(C(N)=S)ccn1`, in experiment [2], the IC90 is 50000 nM and the IC50 worked out at 8840 nM.

The values above are taken from PubChem BioAssay AID504901 (Southern Research Specialized Biocontainment Screening …, 2011).
